In brackets after ≈: the same amount, converted by molar mass.
How the values were obtained:
C. krusei biofilm [1] = test: Biofilm metabolic activity by XTT-reduction assay; assay type: cell-based, Candida krusei
Description: (§1) For all bacterial strains considered in the study, biofilm was performed on a 96‐well plate inoculated with 200 µL of a bacterial suspension 1 × 10^6 CFU/mL and incubated 24 h at 37°C. After incubation for 4 h at 37°C, the medium was aspirated, non‐adherent cells were removed, washed with PBS and added with 200 µL of fresh medium. […] Similarly, to perform fungal biofilm, the different Candida species were grown for 24 h at 28°C on a multi‐wells plate, washed twice with sterile PBS, and then resuspended at 37°C in RPMI 1640 plus 10% FBS at 2.5 × 10^7 cells. After incubation for 3 h at 37°C in six‐well polystyrene plates, the medium was aspirated, non‐adherent cells were removed and washed with PBS.
(§2) The biofilm metabolic activity was evaluated by XTT assay, that highpoints the activity through the reduction of the tetrazolium salt to formazan. After the removal of supernatant and washing with PBS, a solution of XTT‐menadione solution were added to wells. The XTT‐menadione was prepared dissolving XTT powder in prewarmed PBS (37°C) at 0.5 g/L. The solution was sterilized through a 0.22 μm pore size filter. Before each assay, the XTT solution was thawed and supplemented with menadione, a 10 mM stock dissolved in acetone to a final concentration 1 μM. Plates were incubated for 3 h at 37°C in the dark and then the absorbance was measured at 492 nm using the microplate reader, Tecan Sunrise.

C. albicans biofilm [2] = test: Biofilm metabolic activity by XTT-reduction assay; assay type: cell-based, Candida albicans
Description: as §1, §2

C. glabrata biofilm [3] = test: Biofilm biomass by crystal violet (CV) assay; assay type: cell-based, Candida glabrata
Description: as §1
(§3) To quantify bacterial and Candida biofilm biomass, CV, a dye able to color the biofilm matrix, was used. Firstly, after the removal of supernatant and washing with PBS, biofilm was fixed adding 100 µL of 99% methanol for 15 min. Then, methanol was rinsed off and the plates were air‐dried. Subsequently, 100 µL of a 0.1% of CV solution were added to wells and, after 20 min of contact, the plates were washed under running tap water. To dissolve the bounded CV, 150 µL of 33% of glacial acetic acid were added to wells. The absorbance was measured at 590 nm using an automatic microplate reader, Tecan Sunrise (Tecan Group Ltd., Männedorf, Switzerland).

C. glabrata biofilm [4] = test: Biofilm metabolic activity by XTT-reduction assay; assay type: cell-based, Candida glabrata
Description: as §1, §2

C. albicans biofilm [5] = test: Biofilm biomass by crystal violet (CV) assay; assay type: cell-based, Candida albicans
Description: as §1, §3

C. krusei biofilm [6] = test: Biofilm biomass by crystal violet (CV) assay; assay type: cell-based, Candida krusei
Description: as §1, §3

E. coli biofilm [7] = test: Biofilm metabolic activity by XTT-reduction assay; assay type: cell-based, Escherichia coli
Description: as §1, §2

ESBL-Ec biofilm [8] = test: Biofilm metabolic activity by XTT-reduction assay; assay type: cell-based, Escherichia coli
Description: as §1, §2

MRSA biofilm [9] = test: Biofilm biomass by crystal violet (CV) assay; assay type: cell-based, Staphylococcus aureus
Description: as §1, §3

E. coli biofilm [10] = test: Biofilm biomass by crystal violet (CV) assay; assay type: cell-based, Escherichia coli
Description: as §1, §3

ESBL-Ec biofilm [11] = test: Biofilm biomass by crystal violet (CV) assay; assay type: cell-based, Escherichia coli
Description: as §1, §3

S. aureus biofilm [12] = test: Biofilm metabolic activity by XTT-reduction assay; assay type: cell-based, Staphylococcus aureus
Description: as §1, §2

MRSA biofilm [13] = test: Biofilm metabolic activity by XTT-reduction assay; assay type: cell-based, Staphylococcus aureus
Description: as §1, §2

[14] = test system: Extended Spectrum-Beta-Lactamase producing E. coli (ESBL-Ec); test: MIC and MBC by microbroth dilution; assay type: cell-based; conditions: Escherichia coli, ESBL-Ec
Description: (§4) No substance was added, in one well, for growth control. A bacterial suspension of 1 × 10^8 CFU/mL was inoculated into all wells of the plate and incubated for 24 h at 37°C. […] The dilutions ranged from 4 to 2000 µg/mL for the substances. The inoculum size was about 2.5×10^3 cells/mL. The plates were incubated at 28°C for 24–48 h. The MIC was determined as the lowest substances' concentration where no visible bacterial or fungal growth was observed. […] Each antimicrobial assay was performed in triplicate.

[15] = test system: Staphylococcus aureus ATCC 6538; test: MIC and MBC by microbroth dilution; assay type: cell-based
Description: as §4

[16] = test system: methicillin resistant S. aureus (MRSA); test: MIC and MBC by microbroth dilution; assay type: cell-based; conditions: Staphylococcus aureus
Description: as §4

[17] = test system: Escherichia coli MG1655 (ATCC 700926); test: MIC and MBC by microbroth dilution; assay type: cell-based
Description: as §4

S. aureus biofilm [18] = test: Biofilm biomass by crystal violet (CV) assay; assay type: cell-based, Staphylococcus aureus
Description: as §1, §3

C. tropicalis biofilm [19] = test: Biofilm metabolic activity by XTT-reduction assay; assay type: cell-based, Candida tropicalis; conditions: biofilm in formation (3 h), substance alone at MIC
Description: as §1, §2

C. albicans AIDS 68 = test: MIC and MFC by microbroth dilution; assay type: cell-based; conditions: Candida albicans, AIDS68, C. albicans
Description: as §4

C. tropicalis 45,615 = test: MIC and MFC by microbroth dilution; assay type: cell-based; conditions: Candida tropicalis, C. tropicalis
Description: as §4

C. tropicalis biofilm [20] = test: Biofilm biomass by crystal violet (CV) assay; assay type: cell-based, Candida tropicalis; conditions: substance alone at MIC
Description: as §1, §3

C. krusei 44956 = test: MIC and MFC by microbroth dilution; assay type: cell-based, Candida krusei; conditions: Pichia kudriavzevii, 44956, C. krusei
Description: as §4

C. glabrata DSY562 = test: MIC and MFC by microbroth dilution; assay type: cell-based, Candida glabrata; conditions: Nakaseomyces glabratus, DSY562, C. glabrata
Description: as §4

[21] = preformed biofilm, sub-MIC concentrations alone or in combination (Table 5)
[22] = biofilm in formation, sub-MIC concentrations alone or in combination (Table 5)
[23] = biofilm in formation (4 h), substance alone at MIC
[24] = biofilm in formation, sub-MIC concentrations alone or in combination (Table 5), listed as T
[25] = preformed biofilm (24 h), substance alone at MIC
[26] = planktonic, 24 h, read-out: MIC
[27] = biofilm in formation (3 h), substance alone at MIC
[28] = planktonic, 24-48 h, read-out: MIC
[29] = biofilm in formation (3 h), substance alone at MIC, listed as thymol

OC(Cn1cncn1)(Cn1cncn1)c1ccc(F)cc1F [FLC, fluconazole, reference compound]
Percentage of metabolic activity reduction (C. krusei biofilm [1]; [21]): 14%
Percentage of metabolic activity reduction (C. albicans biofilm [2]; [22]): 25.1%
Percentage of metabolic activity reduction (C. albicans biofilm [2]; [21]): 6.9%
Percentage of biomass reduction (C. glabrata biofilm [3]; [22]): 20.5%
Percentage of metabolic activity reduction (C. glabrata biofilm [4]; [22]): 27.1%
Percentage of metabolic activity reduction (C. glabrata biofilm [4]; [21]): 5.3%
Percentage of biomass reduction (C. albicans biofilm [5]; [22]): 30.6%
Percentage of biomass reduction (C. krusei biofilm [6]; [21]): 14%

CNC(C)C1CCC(N)C(OC2C(N)CC(N)C(OC3OCC(C)(O)C(NC)C3O)C2O)O1 (stereo not shown) [GM, gentamicin, reference compound]
Percentage of metabolic activity reduction (E. coli biofilm [7]; [22]): 35.9%
Percentage of metabolic activity reduction (E. coli biofilm [7]; [21]): 48.3%
Percentage of metabolic activity reduction (ESBL-Ec biofilm [8]; [22]): 50%
Percentage of biomass reduction (MRSA biofilm [9]; [22]): 57.6%
Percentage of biomass reduction (MRSA biofilm [9]; [21]): 33.6%
Percentage of biomass reduction (E. coli biofilm [10]; [22]): 48%
Percentage of biomass reduction (E. coli biofilm [10]; [21]): 59.8%
Percentage of biomass reduction (ESBL-Ec biofilm [11]; [22]): 66.7%
Percentage of biomass reduction (ESBL-Ec biofilm [11]; [21]): 48.9%
Percentage of metabolic activity reduction (S. aureus biofilm [12]; [21]): 15.2%
Percentage of metabolic activity reduction (MRSA biofilm [13]; [22]): 22.3%
Percentage of metabolic activity reduction (MRSA biofilm [13]; [21]): 16%

Cc1ccc(C(C)C)c(O)c1 [Thymol, 2‐isopropyl‐5‐methylphenol]
Percentage of metabolic activity reduction (E. coli biofilm [7]; [23]): 84.8%
Percentage of metabolic activity reduction (E. coli biofilm [7]; [22]): ~50%
Percentage of metabolic activity reduction (E. coli biofilm [7]; [24]): 51.3%
Percentage of metabolic activity reduction (E. coli biofilm [7]; [25]): 74%
Percentage of metabolic activity reduction (E. coli biofilm [7]; [21]): 22.4%
Percentage of metabolic activity reduction (ESBL-Ec biofilm [8]; [23]): 77.9%
Percentage of metabolic activity reduction (ESBL-Ec biofilm [8]; [22]): ~50%
Percentage of metabolic activity reduction (ESBL-Ec biofilm [8]; [24]): 52%
Percentage of metabolic activity reduction (ESBL-Ec biofilm [8]; [25]): 74%
MIC [14, 26]: 125 µg/mL (≈ 832 µM)
MBC ([14]; read-out: MBC): 250 µg/mL (≈ 1660 µM)
MIC ([15]; ATCC6538, S. aureus 6538, planktonic, 24 h, read-out: MIC): 250 µg/mL (≈ 1660 µM)
MBC ([15]; ATCC6538, S. aureus 6538, read-out: MBC): 250 µg/mL (≈ 1660 µM)
MIC [16, 26]: 250 µg/mL (≈ 1660 µM)
MBC ([16]; read-out: MBC): 250 µg/mL (≈ 1660 µM)
MIC ([17]; E. coli MG1655, planktonic, 24 h, read-out: MIC): 125 µg/mL (≈ 832 µM)
MBC ([17]; E. coli MG1655, read-out: MBC): 250 µg/mL (≈ 1660 µM)
Percentage of metabolic activity reduction (C. krusei biofilm [1]; [27]): 71.7%
Percentage of metabolic activity reduction (C. krusei biofilm [1]; [22]): 25%
Percentage of metabolic activity reduction (C. krusei biofilm [1]; [25]): 47%
Percentage of metabolic activity reduction (C. krusei biofilm [1]; [21]): 25.1%
Percentage of biomass reduction (S. aureus biofilm [18]; [23]): 79.7%
Percentage of biomass reduction (S. aureus biofilm [18]; [24]): 11.6%
Percentage of biomass reduction (S. aureus biofilm [18]; [25]): 82.7%
Percentage of biomass reduction (MRSA biofilm [9]; [23]): 90%
Percentage of biomass reduction (MRSA biofilm [9]; [24]): 22.6%
Percentage of biomass reduction (MRSA biofilm [9]; [25]): 87%
Percentage of biomass reduction (MRSA biofilm [9]; [21]): 31.3%
Percentage of biomass reduction (E. coli biofilm [10]; [23]): 87.7%
Percentage of biomass reduction (E. coli biofilm [10]; [25]): 87%
Percentage of biomass reduction (ESBL-Ec biofilm [11]; [23]): 70%
Percentage of biomass reduction (ESBL-Ec biofilm [11]; [25]): 69.8%
Percentage of metabolic activity reduction (C. tropicalis biofilm [19]): 53.9%
Percentage of metabolic activity reduction (C. albicans biofilm [2]; [27]): 85.1%
Percentage of metabolic activity reduction (C. albicans biofilm [2]; [22]): about 22%
Percentage of metabolic activity reduction (C. albicans biofilm [2]; [24]): 24.0%
Percentage of metabolic activity reduction (C. albicans biofilm [2]; [25]): 84.1%
Percentage of metabolic activity reduction (C. albicans biofilm [2]; preformed biofilm (24 h), substance alone at MIC, listed as thymol): 80%
Percentage of metabolic activity reduction (C. albicans biofilm [2]; [21]): 9.0%
MIC (C. albicans AIDS 68; [28]): ≥ 2000 µg/mL
MFC (C. albicans AIDS 68; read-out: MFC): ≥ 2000 µg/mL
MIC (C. tropicalis 45,615; [28]): ≥ 2000 µg/mL
MFC (C. tropicalis 45,615; read-out: MFC): ≥ 2000 µg/mL
Percentage of biomass reduction (C. tropicalis biofilm [20]; biofilm in formation (3 h)): 37.1%
Percentage of biomass reduction (C. tropicalis biofilm [20]; biofilm in formation (3 h), listed as thymol): about 40%
Percentage of biomass reduction (C. tropicalis biofilm [20]; preformed biofilm (24 h)): 11.8%
MIC (C. krusei 44956; [28]): ≥ 2000 µg/mL
MFC (C. krusei 44956; read-out: MFC): ≥ 2000 µg/mL
Percentage of biomass reduction (C. glabrata biofilm [3]; [27]): 52.1%
Percentage of biomass reduction (C. glabrata biofilm [3]; [29]): about 40%
Percentage of biomass reduction (C. glabrata biofilm [3]; [25]): 17.5%
MIC (C. glabrata DSY562; [28]): ≥ 2000 µg/mL
MFC (C. glabrata DSY562; read-out: MFC): ≥ 2000 µg/mL
Percentage of metabolic activity reduction (C. glabrata biofilm [4]; [27]): 90%
Percentage of metabolic activity reduction (C. glabrata biofilm [4]; [25]): 9.6%
Percentage of metabolic activity reduction (C. glabrata biofilm [4]; [21]): 11.4%
Percentage of biomass reduction (C. albicans biofilm [5]; [27]): 44.6%
Percentage of biomass reduction (C. albicans biofilm [5]; [29]): about 40%
Percentage of biomass reduction (C. albicans biofilm [5]; [22]): about 22%
Percentage of biomass reduction (C. albicans biofilm [5]; [24]): 22.5%
Percentage of metabolic activity reduction (S. aureus biofilm [12]; [23]): 90%
Percentage of metabolic activity reduction (S. aureus biofilm [12]; [24]): 12%
Percentage of metabolic activity reduction (S. aureus biofilm [12]; [25]): 90%
Percentage of metabolic activity reduction (MRSA biofilm [13]; [23]): 96.3%
Percentage of metabolic activity reduction (MRSA biofilm [13]; [25]): 97.5%
Percentage of metabolic activity reduction (MRSA biofilm [13]; [21]): 17.2%
Percentage of biomass reduction (C. krusei biofilm [6]; [27]): no effect
Percentage of biomass reduction (C. krusei biofilm [6]; [25]): 18.5%
